Results: US4188398A, “Method for treating epilepsy” (priority 1978, dated 1980)

Key:
[1] = Duration of activity, corazol test; assay type: in vivo, white mice
Protocol: Corazol convulsions and maximum electroshock tests were carried out to determine the duration of the preparation's activity. Two series of experiments were made on white mice weighing 20 to 25 g. In the first series, the preparation was introduced intraperitoneally, whereas in the second series it was introduced into the stomach through a metal probe.
The anticonvulsive action of effective doses of the proposed preparation (200 mg/kg were introduced intraperitoneally, and 400 mg/kg were introduced per os) was tested every 30 minutes on separate groups of mice, each including 100 animals. The tests were continued until complete termination of the anticonvulsive effect.

[2] = Other pharmacological properties (vegetative nervous system, blood pressure, breathing, neuromuscular conduction); assay type: in vivo; details: intraperitoneally or per os
[3] = Mutagenicity, threonine locus of Bacillus coli; assay type: cell-based; details: bacillus coli, 0.2-mole concentration
Protocol: (§1) The preparation was further studied with regard to the threonine locus of Bacillus coli at a 0.2-mole concentration; the object was subjected to treatment during 24 hours; the survival rate of the cells was between 42 and 91 percent.

[4] = tested on: threonine locus of Bacillus coli; assay: Mutagenicity, threonine locus of Bacillus coli; assay type: cell-based; details: 0.2-mole concentration, 24 hours
Protocol: as §1

[5] = Clinical study in epilepsy patients; assay type: in vivo, human (patients)
Protocol: The therapeutic effectiveness of the preparation was evaluated while treating different forms of epilepsy.
The patient's age was between 4 and 56 years with the period of sickness ranging from 2 to 18 years. The different forms of the disease fell into the following categories according to clinical and encephalographic data: polymorphous fits with a deep temporal or frontotemporal focus of epileptic activity; psychomotor fits of pseudo absentia epileptica; generalized tonico-clonic convulsive fits; true absentia epileptica with myoclonic atonic fits and cerebrovascular diseases of the central nervous system, resulting in temporal epileptic fits and polymorphous fits.
The duration of the course of treatment varied from 3 months to 3 years.
The preparation of the present invention was administered per os 3 to 6 times a day; each time a patient was given a tablet of 0.25 g so that the daily dose of the preparation was 0.75 to 1.5 g. […] In a group of 40 patients, examination of other electroencephalographic convulsive manifestations was accompanied by studying focal paroxysmal phenomena in the temporal lobes.

[6] = corazol, 200 mg/kg intraperitoneally

In the case of `CC(C)Oc1ccc(C2CC(=O)NC2=O)cc1` (stereo not drawn) [proposed preparation, α-/para-isopropoxyphenyl/succinimide], the “duration of effect, oral versus intraperitoneal” value ([1]; corazol test) is reported as “lasts longer in the case of oral administration”, the “time after which effect totally disappears” value [1, 6] is reported as “three” and the “time of maximum anticonvulsive effect” value [1, 6] is reported as 60 min. For the same molecule, the “time after which activity is gradually brought down” value ([1]; corazol, 400 mg/kg per os) was “six”, the “time after which effect totally disappears” value ([1]; corazol, 400 mg/kg per os) was “about eight” and the “time for which maximum level is maintained” value ([1]; corazol, 400 mg/kg per os) was “four and a half”. For the same molecule, the “time of maximum anticonvulsive effect” value ([1]; corazol, 400 mg/kg per os) was 90 min, the “blood pressure, breathing and neuromuscular conduction” value [2] was “no changes are observed in the blood pressure, breathing and neuromuscular conduction” and the “effect on the vegetative nervous system” value [2] was “no effect upon the vegetative nervous system”. For the same molecule, the fold induction at 24 h, 200000 µM ([3]; read-out: revertants relative to control (spontaneous mutation)) was 1.8, the viability at 24 h, 200000 µM ([3]; read-out: survival rate of the cells) was 42 to 91% and the genetic action [4] was “extremely weak genetic action”. For the same molecule, the revertants induced [4] was “no more than 17 revertants”, the “insomnia and disturbed sleep” value ([5]; administered shortly before bedtime) was “almost all the patients complained of insomnia and disturbed sleep” and the “itching of the skin, weakness and dizziness” value ([5]; after 3 or 4 days of treatment) was “very few cases”. For the same molecule, the “time to discontinuation or lower frequency of seizures” value ([5]; after beginning of treatment, dose of 0.25 g) was 7 to 8 days, the “therapeutic effect in convulsive forms of epilepsy” value ([5]; cases of diffusive electroencephalographic pathology) was “week therapeutic effect” and the “effect in secondary generalized seizures” value ([5]; clinically and electroencephalographically established focal changes) was “ineffective”. For the same molecule, the “depressing action upon the central nervous system” value ([5]; compared with other antiepileptic drugs) was “not as intense as that of other antiepileptic drugs”, the “patients in whom fits discontinued” value ([5]; group of 40 patients, after 10 to 14 days, per os 0.75 to 1.5 g daily) was 18 patients and the “anticonvulsive effect versus milontin and celontin in psychomotor and convulsive fits” value ([5]; human, in vivo) was “somewhat more effective”. For the same molecule, the “effect on minor epileptic fits associated with anterior trunkal localization of the epileptic focus” value ([5]; human, in vivo) was “the most effective in stopping minor epileptic fits”, the “increased frequency of fits” value ([5]; human, in vivo) was “never resulted in an increased frequency of fits” and the nausea ([5]; human, in vivo) was “Some patients complained of nausea”. The “potentiating effect upon convulsive paroxysms” value ([5]; human, in vivo) was “absence of a potentiating effect upon convulsive paroxysms”, the “weakness or dizziness in the day time” value ([5]; human, in vivo) was “does not cause weakness or dizziness in the day time” and the sleep ([5]; last dose 3 or 4 hours before bedtime) was “normal sleep was soon restored”. For the same molecule, the “allergic manifestations or somatic abnormalities” value ([5]; patients) was “no allergic manifestations or somatic abnormalities were observed”, the “effect on ambivalence of reactions, ability for mental work and night sleep” value ([5]; patients) was “improves the ambivalence of reactions and the ability for mental work; night sleep becomes deeper and longer” and the “effect on mood, affectivity, anxieties, stresses” value ([5]; patients) was “improves the general mood of patients, reduces affectivity, eliminates anxieties and relieves stresses”. For the same molecule, the “effect upon aggressive, quarrelsome and importune epileptics” value ([5]; patients) was “soothing effect”, the “laboratory analyses of blood and urine” value ([5]; patients) was “no pathological changes” and the “pathologic changes in the blood system” value ([5]; patients) was “no pathologic changes in the blood system”. For the same molecule, the “therapeutic effect in polymorphous paroxysms and fits of the temporal type” value ([5]; per os 0.75 to 1.5 g daily) was “the most effective in cases of polymorphous paroxysms and fits of the temporal type”, the “memory of actual events” value ([5]; psychologic examination) was “improves the memory of actual events” and the “reduction of frequency of fits” value ([5]; remaining 22 of 40 patients, per os 0.75 to 1.5 g daily) was “reduced from 3 to 4 a week to 2 to 3 a month”. For the same molecule, the sedative effect ([5]; single doses of 0.5 g) was “weak and short-lived sedative effect” and the toxic neurological complications ([5]; uninterrupted courses up to eight months) was “does not result in any toxic neurological complications”.
